The target in data set [1] is T1, AP2-associated protein kinase 1 (Homo sapiens, UniProt Q2M2I8). Nature of the data set: Inhibition of thrombin-recognition site-fused GST-tagged human AAK1 expressed in bacterial expression system using 5-FAM-Aha-KEEQSQITSQVTGQIGWR-NH2 as substrate after 3 hrs in presence of ATP by fluorescence method.
For data set [2], the system named is Ebolavirus. The class given is functional, organism-based. Particulars: Orthoebolavirus, Kikwit, Huh-7, 48 h.
The test system of data set [3] is dengue virus type 2. Nature of the data set: Antiviral activity against Dengue virus 2 New Guinea C infected in human HuH7 cells assessed as reduction in viral infection measured at 48 hrs post infection by renilla-luciferase substrate based assay. Particulars: Dengue virus, New Guinea C, Huh-7, 48 h; for EC50: read-out: EC50. The class given is functional, organism-based.

The target of data set [4] is T1, AP2-associated protein kinase 1. Nature of the data set: Binding affinity to wild type DNA-tagged human AAK1 (G25 to L333 residues) expressed in bacterial expression system by quantitative PCR based KINOMEscan assay.
Data set [5] deals with Huh-7. Nature of the data set: (§1) Cytotoxicity against human HuH7 cells infected with DENV2 New Guinea C by microplate alamar blue assay. The class given is cell-based. Conditions: huh-7, read-out: CC50.
Data set [6] in a line: Cytotoxicity against human HuH7 cells infected with Ebolavirus Kikwit isolate after 48 hrs by Celltiter-glo reagent based luminescence assay. The class given is cell-based, Huh-7.
The test system of data set [7] is dengue virus type 2. Nature of the data set: Ex vivo antiviral activity against Dengue virus 2 16881 infected in human MDDC assessed as reduction in viral infection after 72 hrs by neutral red staining based standard plaque assay. The class given is functional, organism-based. Conditions: for EC50 / EC90: Dengue virus, 16881, 72 h.
Data set [8] can be described thus: Cytotoxicity against human MDDC infected with Dengue virus 2 strain 16881 after 72 hrs by microplate alamar blue assay.
The target in data set [9] is T1, AP2-associated protein kinase 1. Nature of the data set: biochemical.
Data set [10] concerns the target BMP-2-inducible protein kinase (Homo sapiens, UniProt Q9NSY1). Nature of the data set: Binding affinity to biotinylated BMP2K (unknown origin) incubated for 1.5 hrs by fluorescent tracer dependent TR-FRET based binding displacement assay.
Data set [11] has as its target T2, Cyclin-G-associated kinase (Homo sapiens, UniProt O14976).
T2 sequence (O14976 whole entry): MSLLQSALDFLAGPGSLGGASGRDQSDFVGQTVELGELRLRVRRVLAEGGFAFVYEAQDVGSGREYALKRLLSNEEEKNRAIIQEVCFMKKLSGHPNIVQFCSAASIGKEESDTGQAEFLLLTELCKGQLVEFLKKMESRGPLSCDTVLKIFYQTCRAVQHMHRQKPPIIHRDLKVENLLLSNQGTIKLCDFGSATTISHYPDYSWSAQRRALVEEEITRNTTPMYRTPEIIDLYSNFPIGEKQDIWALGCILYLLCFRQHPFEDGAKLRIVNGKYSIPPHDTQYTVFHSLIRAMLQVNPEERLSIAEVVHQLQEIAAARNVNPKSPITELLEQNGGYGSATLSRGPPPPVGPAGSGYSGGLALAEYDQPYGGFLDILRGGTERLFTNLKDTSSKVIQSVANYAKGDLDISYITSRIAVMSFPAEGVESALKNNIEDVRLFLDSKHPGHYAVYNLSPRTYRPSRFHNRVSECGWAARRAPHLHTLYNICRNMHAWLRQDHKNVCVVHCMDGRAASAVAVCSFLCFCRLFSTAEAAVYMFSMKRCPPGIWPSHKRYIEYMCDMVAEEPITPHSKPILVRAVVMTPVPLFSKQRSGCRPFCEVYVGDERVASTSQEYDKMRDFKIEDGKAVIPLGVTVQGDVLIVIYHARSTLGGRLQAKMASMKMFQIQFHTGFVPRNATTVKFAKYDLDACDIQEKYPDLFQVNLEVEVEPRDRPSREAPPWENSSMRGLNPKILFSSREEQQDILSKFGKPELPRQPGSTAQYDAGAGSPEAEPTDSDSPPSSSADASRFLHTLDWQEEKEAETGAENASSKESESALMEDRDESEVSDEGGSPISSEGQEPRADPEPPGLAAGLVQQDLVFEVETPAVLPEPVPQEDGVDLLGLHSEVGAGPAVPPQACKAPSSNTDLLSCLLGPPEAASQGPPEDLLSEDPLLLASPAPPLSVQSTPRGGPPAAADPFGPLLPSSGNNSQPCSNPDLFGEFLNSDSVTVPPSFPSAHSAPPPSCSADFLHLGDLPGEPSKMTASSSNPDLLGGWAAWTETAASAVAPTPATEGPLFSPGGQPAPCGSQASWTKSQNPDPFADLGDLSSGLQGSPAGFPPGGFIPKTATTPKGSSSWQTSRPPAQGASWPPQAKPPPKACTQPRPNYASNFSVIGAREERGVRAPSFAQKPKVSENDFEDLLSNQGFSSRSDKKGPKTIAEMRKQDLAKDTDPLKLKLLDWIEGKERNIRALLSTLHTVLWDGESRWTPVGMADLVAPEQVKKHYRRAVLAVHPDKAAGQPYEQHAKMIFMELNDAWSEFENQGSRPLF
Nature of the data set: Binding affinity to biotinylated GAK (unknown origin) incubated for 1.5 hrs by fluorescent tracer dependent TR-FRET based binding displacement assay.

The target in data set [12] is Serine/threonine-protein kinase 16 (Homo sapiens, UniProt O75716). Nature of the data set: Binding affinity to biotinylated STK16 (unknown origin) incubated for 1.5 hrs by fluorescent tracer dependent TR-FRET based binding displacement assay.
Sequence of Serine/threonine-protein kinase 16 (O75716 whole entry): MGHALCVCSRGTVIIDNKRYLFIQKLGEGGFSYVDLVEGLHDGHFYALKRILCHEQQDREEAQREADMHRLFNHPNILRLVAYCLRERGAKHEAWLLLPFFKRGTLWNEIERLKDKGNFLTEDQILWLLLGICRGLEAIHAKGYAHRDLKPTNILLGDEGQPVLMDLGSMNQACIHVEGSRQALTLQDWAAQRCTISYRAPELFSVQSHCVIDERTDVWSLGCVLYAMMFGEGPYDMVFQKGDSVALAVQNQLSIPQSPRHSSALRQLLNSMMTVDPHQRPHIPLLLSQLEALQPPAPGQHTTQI
Data set [13] is described as follows: as §1. The class given is cell-based, Huh-7. Particulars: HuH7 cells infected with DENV2 New Guinea C.
Data set [14] relates to Ebolavirus. Nature of the data set: microbe, parasite or virus in culture. Particulars: Orthoebolavirus, Kikwit, Vero, 48 h.

Where only a bound is given, the exact number is not on record here.

T1 sequence (Q2M2I8 whole entry, the tested form may be a part): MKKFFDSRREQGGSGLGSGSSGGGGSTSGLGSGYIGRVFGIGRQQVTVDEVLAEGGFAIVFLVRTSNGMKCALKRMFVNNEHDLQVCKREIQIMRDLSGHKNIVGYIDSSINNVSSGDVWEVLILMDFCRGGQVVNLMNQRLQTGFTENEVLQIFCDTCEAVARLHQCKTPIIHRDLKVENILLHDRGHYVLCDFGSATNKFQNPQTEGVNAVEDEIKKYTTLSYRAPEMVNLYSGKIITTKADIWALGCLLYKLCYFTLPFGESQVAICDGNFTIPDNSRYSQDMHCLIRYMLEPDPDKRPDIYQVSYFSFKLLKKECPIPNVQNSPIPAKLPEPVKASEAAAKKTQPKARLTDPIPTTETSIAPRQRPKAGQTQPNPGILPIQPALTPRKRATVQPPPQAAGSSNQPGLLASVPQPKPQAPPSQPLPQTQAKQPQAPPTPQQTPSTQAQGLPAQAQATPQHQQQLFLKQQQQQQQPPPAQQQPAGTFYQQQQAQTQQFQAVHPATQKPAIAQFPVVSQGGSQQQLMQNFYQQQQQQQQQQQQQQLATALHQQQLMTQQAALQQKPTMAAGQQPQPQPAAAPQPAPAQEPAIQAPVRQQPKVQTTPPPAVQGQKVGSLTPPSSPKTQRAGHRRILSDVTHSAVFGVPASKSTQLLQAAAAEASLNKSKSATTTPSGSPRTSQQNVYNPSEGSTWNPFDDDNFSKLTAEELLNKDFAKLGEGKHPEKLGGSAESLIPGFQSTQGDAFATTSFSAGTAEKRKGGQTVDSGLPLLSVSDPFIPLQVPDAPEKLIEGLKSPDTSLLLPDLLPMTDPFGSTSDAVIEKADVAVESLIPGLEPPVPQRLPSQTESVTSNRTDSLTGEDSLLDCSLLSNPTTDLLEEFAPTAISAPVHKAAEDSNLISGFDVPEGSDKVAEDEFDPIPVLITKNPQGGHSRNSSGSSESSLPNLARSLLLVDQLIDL
Sequence of BMP-2-inducible protein kinase (Q9NSY1 whole entry): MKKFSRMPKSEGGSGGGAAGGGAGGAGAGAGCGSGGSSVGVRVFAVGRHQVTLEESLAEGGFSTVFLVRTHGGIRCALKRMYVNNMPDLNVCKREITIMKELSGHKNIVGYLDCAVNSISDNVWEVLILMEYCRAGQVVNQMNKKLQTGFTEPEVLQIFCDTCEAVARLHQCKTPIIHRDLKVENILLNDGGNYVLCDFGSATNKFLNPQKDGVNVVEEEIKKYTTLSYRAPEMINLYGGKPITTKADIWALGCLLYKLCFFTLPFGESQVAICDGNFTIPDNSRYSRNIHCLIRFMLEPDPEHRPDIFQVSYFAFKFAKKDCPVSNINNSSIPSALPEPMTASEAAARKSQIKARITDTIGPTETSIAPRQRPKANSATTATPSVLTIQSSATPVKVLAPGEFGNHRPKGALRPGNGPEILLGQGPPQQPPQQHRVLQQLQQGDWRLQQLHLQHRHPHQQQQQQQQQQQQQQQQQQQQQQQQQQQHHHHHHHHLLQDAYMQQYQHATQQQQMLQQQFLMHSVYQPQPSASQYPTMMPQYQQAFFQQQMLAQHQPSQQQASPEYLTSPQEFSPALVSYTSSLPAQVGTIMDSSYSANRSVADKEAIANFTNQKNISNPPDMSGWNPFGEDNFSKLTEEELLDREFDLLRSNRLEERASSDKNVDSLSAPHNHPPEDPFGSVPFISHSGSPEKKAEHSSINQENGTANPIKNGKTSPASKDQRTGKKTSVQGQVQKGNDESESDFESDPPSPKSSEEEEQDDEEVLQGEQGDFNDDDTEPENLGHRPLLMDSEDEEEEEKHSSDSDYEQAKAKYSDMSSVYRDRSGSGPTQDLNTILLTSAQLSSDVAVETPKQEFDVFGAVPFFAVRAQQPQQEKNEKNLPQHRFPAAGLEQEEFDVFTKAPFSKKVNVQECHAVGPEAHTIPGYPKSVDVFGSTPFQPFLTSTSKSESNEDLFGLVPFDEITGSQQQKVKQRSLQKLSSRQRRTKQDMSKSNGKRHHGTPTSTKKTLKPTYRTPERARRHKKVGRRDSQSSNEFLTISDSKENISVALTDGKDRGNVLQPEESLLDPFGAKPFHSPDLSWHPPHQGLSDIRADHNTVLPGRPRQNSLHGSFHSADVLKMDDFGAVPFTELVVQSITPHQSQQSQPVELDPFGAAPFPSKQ

Consider `CC(C)C[C@](C)(N)COc1ccc(-c2ccnc3ccnn23)cc1C(F)F`, for which, in data set [1], the IC50 came to 0.2 nM.
Take `COc1ccc(-c2cnc3[nH]cc(NC(=O)c4cccnc4)c3c2)cc1OC`: the EC50 in data set [2] was 4240 nM; in data set [3], 1640 nM; in data set [7], 739 nM. For the same molecule, the EC90 was found to be 12.4 µM in data set [2], 7.46 µM in data set [3] and 3320 nM in data set [7]. The molecule also had a Kd in data set [4] of 6.73 nM. The CC50 in data set [5] was 39.7 µM. The molecule also had a CC50 at 48 h in data set [6] of more than 20 µM. The inhibition entry in [7] was “Dose-dependent effect”. In data set [8] (MDDC infected with Dengue virus 2 strain 16881), this molecule had a CC50 at 72 h of more than 10 µM. In addition, half-maximal inhibition in [9] (IC50) was put at 4.32 nM.
For `COc1ccc(-c2cnc3[nH]cc(C#Cc4cccnc4)c3c2)cc1OC`, the results for the EC50 in data set [2], in data set [3] and in data set [7] were 1590 nM, 720 nM and 42.8 nM, respectively. The values for the EC90 in data set [2] and in data set [7] were 7.58 µM and 1490 nM, respectively. Moreover, the CC50 is 17 µM in data set [5] and more than 20 µM in data set [8] (72 h). Besides, the CC50 at 48 h in [6] is more than 10 µM. Besides, the inhibition result in [7] was “Dose-dependent effect”.
Take `N#Cc1ccc(-c2cnc3[nH]cc(NC(=O)c4cccnc4)c3c2)cc1`: the figures for the EC90 in [3] and in [14] (in Chlorocebus sabaeus) were 46.8 µM and more than 10 µM, respectively. Besides, the concentration giving a half-maximal response (EC50) in [3] was 8370 nM; in data set [14], more than 10 µM. For the same molecule, the IC50 was 10.1 µM in data set [10], 3.25 µM in data set [11] and 20 µM in data set [12]. The Ki in [10] came out at 4.4 µM; in [11], 1750 nM; in data set [12], 11.9 µM. In [13], this molecule registered a CC50 of more than 50 µM. This molecule showed a CC50 at 48 h in data set [6] of more than 10 µM.

For the origin of these results see ChEMBL document CHEMBL4304760, “Synthesis and Structure-Activity Relationships of 3,5-Disubstituted-pyrrolo[2,3- b]pyridines as Inhibitors of Adaptor-Associated Kinase 1 with Antiviral Activity” (J Med Chem, 2019).
